ChEMBL document CHEMBL5131414, “Design, synthesis, and evaluation of phenylpiperazine-phenylacetate derivatives as rapid recovery hypnotic agents” (Bioorg Med Chem Lett, 2022)

What was measured:
[1] = Toxicity in mouse assessed as lethal dose; details: in vivo
[2] = system: Mus musculus; experiment: Anesthetic activity in mouse assessed as concentration required to induce hypnotic effect; format: functional, organism-based
[3] = biological target: GABA-A receptor; anion channel (Homo sapiens) (UniProt P14867+P47870+P18507+P28472+P48169+Q99928+Q9UN88+P34903+O00591+O14764+Q8N1C3+P18505+P78334+P47869+P31644+Q16445); experiment: Inhibition of GABAA receptor (unknown origin) at 50 uM by radioligand receptor binding assay relative to control; format: protein-complex assay
[4] = Therapeutic index, ratio of LD50 for toxicity in mouse to HD50 for anesthetic activity in mouse; format: organism-based; details: in vivo, read-out: TI
[5] = Lipophilicity, logP of the compound; format: physicochemical; details: octanol/water
[6] = Therapeutic index, ratio of LD50 for toxicity in rat to HD50 for anesthetic activity in rat; details: read-out: TI
[7] = biological target: Sigma non-opioid intracellular receptor 1 (Homo sapiens) (UniProt Q99720); experiment: Inhibition of sigma 1 receptor (unknown origin) at 50 uM by radioligand receptor binding assay relative to control
[8] = system: Rattus norvegicus; experiment: Anesthetic activity in rat assessed as time to walk at 2 times of HD50 concentration; format: functional
[9] = system: Oryctolagus cuniculus; experiment: Anesthetic activity in rabbit assessed as onset time; format: functional
[10] = biological target: T1, Alpha-2A adrenergic receptor (Homo sapiens) (UniProt P08913); experiment: Inhibition of adrenergic alpha 2A receptor (unknown origin) at 50 uM by radioligand receptor binding assay relative to control
T1 sequence (whole entry): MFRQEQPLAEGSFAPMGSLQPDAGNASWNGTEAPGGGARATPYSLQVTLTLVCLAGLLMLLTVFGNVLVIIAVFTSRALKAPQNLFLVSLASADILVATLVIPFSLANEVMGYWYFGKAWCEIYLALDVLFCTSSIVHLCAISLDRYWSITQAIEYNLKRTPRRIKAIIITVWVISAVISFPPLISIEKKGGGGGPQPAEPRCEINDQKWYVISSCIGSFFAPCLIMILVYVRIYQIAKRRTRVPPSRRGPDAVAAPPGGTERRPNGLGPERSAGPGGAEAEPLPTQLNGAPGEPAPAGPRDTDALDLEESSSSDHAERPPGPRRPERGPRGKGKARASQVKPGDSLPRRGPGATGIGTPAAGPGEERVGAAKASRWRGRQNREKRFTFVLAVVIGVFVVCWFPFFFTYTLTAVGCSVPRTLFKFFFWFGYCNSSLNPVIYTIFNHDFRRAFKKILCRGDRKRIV

[11] = system: Mus musculus; experiment: Anesthetic activity in mouse assessed as time to walk at 2 times of HD50 concentration; format: functional
[12] = biological target: D(2) dopamine receptor (Homo sapiens) (UniProt P14416); experiment: Inhibition of D2 receptor (unknown origin) at 50 uM by radioligand receptor binding assay relative to control
[13] = biological target: D(3) dopamine receptor (Homo sapiens) (UniProt P35462); experiment: Inhibition of D3 receptor (unknown origin) at 50 uM by radioligand receptor binding assay relative to control
[14] = system: Oryctolagus cuniculus; experiment: Anesthetic activity in rabbit assessed as time to walk at 2 times of HD50 concentration; format: functional
[15] = Therapeutic index, ratio of LD50 for toxicity in rabbit to HD50 for anesthetic activity in rabbit; details: read-out: TI
[16] = biological target: Sigma intracellular receptor 2 (Homo sapiens) (UniProt Q5BJF2); experiment: Inhibition of sigma 2 receptor (unknown origin) at 50 uM by radioligand receptor binding assay relative to control
[17] = Toxicity in rat assessed as lethal dose; details: in vivo
[18] = system: Mus musculus; experiment: Anesthetic activity in mouse assessed as time duration of loss of righting reflex; format: functional
[19] = system: Rattus norvegicus; experiment: Anesthetic activity in rat assessed as onset time; format: functional
[20] = Toxicity in rabbit assessed as lethal dose; set-up: species or system Oryctolagus cuniculus; details: in vivo
[21] = system: Mus musculus; experiment: Anesthetic activity in mouse assessed as onset time; format: functional
[22] = biological target: Mu-type opioid receptor (Homo sapiens) (UniProt P35372); experiment: Inhibition of mu opioid receptor (unknown origin) at 50 uM by radioligand receptor binding assay relative to control
[23] = biological target: Sodium-dependent noradrenaline transporter (Homo sapiens) (UniProt P23975); experiment: Inhibition of Noradrenaline receptor (unknown origin) at 50 uM by radioligand receptor binding assay relative to control
[24] = system: Rattus norvegicus; experiment: Anesthetic activity in rat assessed as time duration of loss of righting reflex; format: functional
[25] = system: Rattus norvegicus; experiment: Anesthetic activity in rat assessed as concentration required to induce hypnotic effect; format: functional, organism-based
[26] = system: Oryctolagus cuniculus; experiment: Anesthetic activity in rabbit assessed as time duration of loss of righting reflex; format: functional
[27] = biological target: 5-hydroxytryptamine receptor 2A (Homo sapiens) (UniProt P28223); experiment: Inhibition of 5-HT2A receptor (unknown origin) at 50 uM by radioligand receptor binding assay relative to control
[28] = biological target: T2, 5-hydroxytryptamine receptor 1A (Homo sapiens) (UniProt P08908); experiment: Inhibition of 5-HT1A receptor (unknown origin) at 50 uM by radioligand receptor binding assay relative to control
T2 sequence (whole entry): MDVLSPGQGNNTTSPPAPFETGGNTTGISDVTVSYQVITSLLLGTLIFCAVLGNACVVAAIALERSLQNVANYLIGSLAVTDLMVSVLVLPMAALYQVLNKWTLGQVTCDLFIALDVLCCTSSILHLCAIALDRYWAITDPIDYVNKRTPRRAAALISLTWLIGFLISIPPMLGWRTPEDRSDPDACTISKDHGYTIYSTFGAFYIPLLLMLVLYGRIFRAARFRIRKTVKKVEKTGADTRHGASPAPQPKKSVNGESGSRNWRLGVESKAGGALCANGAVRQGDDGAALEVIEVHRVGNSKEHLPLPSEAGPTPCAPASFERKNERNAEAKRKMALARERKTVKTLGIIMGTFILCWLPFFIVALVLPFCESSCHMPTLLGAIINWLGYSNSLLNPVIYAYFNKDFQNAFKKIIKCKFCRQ

[29] = biological target: Cannabinoid receptor 2 (Homo sapiens) (UniProt P34972); experiment: Inhibition of CB2 receptor (unknown origin) at 50 uM by radioligand receptor binding assay relative to control
[30] = biological target: Cannabinoid receptor 1 (Homo sapiens) (UniProt P21554); experiment: Inhibition of CB1 receptor (unknown origin) at 50 uM by radioligand receptor binding assay relative to control
[31] = biological target: Glutamate [NMDA] receptor (Homo sapiens) (UniProt Q05586+Q12879+Q13224+O15399+O60391+Q14957+Q8TCU5); experiment: Inhibition of NMDA receptor (unknown origin) at 50 uM by radioligand receptor binding assay relative to control; format: protein-complex assay
[32] = biological target: Sodium-dependent serotonin transporter (Homo sapiens) (UniProt P31645); experiment: Inhibition of 5-HT transporter (unknown origin) at 50 uM by radioligand receptor binding assay relative to control
[33] = system: Oryctolagus cuniculus; experiment: Anesthetic activity in rabbit assessed as concentration required to induce hypnotic effect; format: functional, organism-based

5-hydroxytryptamine receptor 2A (Homo sapiens), sequence (P28223 whole entry): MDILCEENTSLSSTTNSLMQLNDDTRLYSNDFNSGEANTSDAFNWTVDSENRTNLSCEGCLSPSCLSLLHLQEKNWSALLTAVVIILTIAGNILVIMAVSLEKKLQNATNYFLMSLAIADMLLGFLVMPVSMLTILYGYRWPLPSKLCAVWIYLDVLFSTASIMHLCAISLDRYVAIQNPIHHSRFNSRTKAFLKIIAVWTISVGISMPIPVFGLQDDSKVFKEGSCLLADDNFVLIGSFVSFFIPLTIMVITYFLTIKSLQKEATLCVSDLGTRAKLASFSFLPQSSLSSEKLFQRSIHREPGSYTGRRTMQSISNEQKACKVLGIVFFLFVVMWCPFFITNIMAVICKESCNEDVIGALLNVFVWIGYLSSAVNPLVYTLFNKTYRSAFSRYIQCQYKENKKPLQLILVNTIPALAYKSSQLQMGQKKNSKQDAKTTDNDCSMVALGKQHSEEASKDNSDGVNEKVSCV
D(3) dopamine receptor (Homo sapiens), sequence (P35462 whole entry): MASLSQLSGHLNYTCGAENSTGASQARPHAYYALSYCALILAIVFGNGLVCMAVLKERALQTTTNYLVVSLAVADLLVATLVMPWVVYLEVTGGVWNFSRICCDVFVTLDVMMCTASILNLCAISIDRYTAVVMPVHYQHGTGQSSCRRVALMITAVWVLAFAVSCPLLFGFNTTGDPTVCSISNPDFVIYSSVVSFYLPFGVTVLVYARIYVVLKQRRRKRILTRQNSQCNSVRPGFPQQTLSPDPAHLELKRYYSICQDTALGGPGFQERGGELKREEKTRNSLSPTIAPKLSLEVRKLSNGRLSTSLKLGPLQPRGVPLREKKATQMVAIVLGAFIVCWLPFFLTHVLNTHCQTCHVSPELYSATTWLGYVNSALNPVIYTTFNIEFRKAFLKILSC
Cannabinoid receptor 2 (Homo sapiens), sequence (P34972 whole entry): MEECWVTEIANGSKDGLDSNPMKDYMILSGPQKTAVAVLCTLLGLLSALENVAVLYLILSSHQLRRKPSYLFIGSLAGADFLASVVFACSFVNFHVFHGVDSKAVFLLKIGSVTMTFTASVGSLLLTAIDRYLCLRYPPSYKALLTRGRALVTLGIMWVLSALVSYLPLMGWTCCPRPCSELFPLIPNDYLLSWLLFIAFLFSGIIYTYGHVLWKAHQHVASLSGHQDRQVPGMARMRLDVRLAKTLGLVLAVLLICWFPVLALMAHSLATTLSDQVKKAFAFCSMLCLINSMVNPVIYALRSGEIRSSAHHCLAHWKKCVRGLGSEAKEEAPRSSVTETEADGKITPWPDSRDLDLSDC
Sigma non-opioid intracellular receptor 1 (Homo sapiens), sequence (Q99720 whole entry): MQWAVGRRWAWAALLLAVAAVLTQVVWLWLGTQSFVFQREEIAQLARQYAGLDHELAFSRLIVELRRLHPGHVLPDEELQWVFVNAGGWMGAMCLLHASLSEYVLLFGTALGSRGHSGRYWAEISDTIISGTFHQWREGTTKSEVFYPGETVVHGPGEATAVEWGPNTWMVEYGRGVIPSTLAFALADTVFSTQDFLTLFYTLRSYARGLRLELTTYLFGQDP
Sodium-dependent serotonin transporter (Homo sapiens), sequence (P31645 whole entry, looked up): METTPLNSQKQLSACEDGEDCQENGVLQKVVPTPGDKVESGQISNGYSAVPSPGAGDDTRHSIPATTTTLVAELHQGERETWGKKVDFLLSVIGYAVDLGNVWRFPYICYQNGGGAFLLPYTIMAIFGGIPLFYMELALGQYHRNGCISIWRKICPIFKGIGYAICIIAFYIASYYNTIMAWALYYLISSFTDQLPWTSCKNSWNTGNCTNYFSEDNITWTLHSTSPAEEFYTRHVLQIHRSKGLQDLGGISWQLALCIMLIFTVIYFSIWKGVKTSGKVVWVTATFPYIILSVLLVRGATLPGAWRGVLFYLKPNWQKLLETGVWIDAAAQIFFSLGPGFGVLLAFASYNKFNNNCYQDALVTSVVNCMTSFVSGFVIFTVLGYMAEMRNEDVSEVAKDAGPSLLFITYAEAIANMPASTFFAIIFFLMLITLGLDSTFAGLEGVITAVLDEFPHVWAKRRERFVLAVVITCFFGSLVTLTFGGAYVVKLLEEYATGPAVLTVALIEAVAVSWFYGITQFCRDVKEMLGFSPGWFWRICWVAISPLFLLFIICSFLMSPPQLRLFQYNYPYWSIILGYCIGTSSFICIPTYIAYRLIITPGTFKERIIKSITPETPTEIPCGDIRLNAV
Sodium-dependent noradrenaline transporter (Homo sapiens), sequence (P23975 whole entry): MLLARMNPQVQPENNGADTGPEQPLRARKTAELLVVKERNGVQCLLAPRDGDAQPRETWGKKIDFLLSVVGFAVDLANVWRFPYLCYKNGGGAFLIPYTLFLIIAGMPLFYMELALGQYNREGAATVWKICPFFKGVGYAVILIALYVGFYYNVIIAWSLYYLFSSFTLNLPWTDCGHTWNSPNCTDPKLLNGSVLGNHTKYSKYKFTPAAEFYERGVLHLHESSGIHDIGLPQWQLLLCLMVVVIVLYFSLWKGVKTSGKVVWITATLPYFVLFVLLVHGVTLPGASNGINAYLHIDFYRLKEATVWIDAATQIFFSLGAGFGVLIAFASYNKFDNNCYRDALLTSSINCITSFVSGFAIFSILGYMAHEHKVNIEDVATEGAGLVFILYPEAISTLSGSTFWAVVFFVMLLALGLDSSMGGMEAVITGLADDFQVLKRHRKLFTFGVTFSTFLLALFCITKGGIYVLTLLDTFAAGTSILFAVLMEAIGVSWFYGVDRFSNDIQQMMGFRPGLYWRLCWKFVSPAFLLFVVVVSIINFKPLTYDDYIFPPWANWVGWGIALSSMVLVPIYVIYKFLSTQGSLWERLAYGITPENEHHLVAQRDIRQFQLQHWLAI
Mu-type opioid receptor (Homo sapiens), sequence (P35372 whole entry): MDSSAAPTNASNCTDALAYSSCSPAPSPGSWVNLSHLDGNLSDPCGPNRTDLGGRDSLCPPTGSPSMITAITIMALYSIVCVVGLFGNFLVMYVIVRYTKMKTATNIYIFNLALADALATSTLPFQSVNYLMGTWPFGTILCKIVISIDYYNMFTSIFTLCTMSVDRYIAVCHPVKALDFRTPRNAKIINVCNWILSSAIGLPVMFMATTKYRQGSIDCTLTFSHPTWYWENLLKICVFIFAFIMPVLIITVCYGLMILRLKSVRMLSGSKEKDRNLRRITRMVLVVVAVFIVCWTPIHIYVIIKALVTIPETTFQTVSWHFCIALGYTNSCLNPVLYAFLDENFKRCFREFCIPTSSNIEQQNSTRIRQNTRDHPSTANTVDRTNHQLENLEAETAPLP
Cannabinoid receptor 1 (Homo sapiens), sequence (P21554 whole entry): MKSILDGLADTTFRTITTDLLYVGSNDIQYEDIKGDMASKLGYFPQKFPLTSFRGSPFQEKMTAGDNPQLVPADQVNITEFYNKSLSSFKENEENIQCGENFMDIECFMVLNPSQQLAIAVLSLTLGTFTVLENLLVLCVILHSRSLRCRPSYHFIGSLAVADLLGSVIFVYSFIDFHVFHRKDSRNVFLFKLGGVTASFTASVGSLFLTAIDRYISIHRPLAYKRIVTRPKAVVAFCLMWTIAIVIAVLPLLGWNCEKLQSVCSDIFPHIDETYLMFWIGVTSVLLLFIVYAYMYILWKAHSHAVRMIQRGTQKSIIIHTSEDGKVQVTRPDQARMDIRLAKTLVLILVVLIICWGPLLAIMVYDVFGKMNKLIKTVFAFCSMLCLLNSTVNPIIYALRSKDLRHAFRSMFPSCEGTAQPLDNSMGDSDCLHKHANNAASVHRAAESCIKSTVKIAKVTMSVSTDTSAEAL
D(2) dopamine receptor (Homo sapiens), sequence (P14416 whole entry): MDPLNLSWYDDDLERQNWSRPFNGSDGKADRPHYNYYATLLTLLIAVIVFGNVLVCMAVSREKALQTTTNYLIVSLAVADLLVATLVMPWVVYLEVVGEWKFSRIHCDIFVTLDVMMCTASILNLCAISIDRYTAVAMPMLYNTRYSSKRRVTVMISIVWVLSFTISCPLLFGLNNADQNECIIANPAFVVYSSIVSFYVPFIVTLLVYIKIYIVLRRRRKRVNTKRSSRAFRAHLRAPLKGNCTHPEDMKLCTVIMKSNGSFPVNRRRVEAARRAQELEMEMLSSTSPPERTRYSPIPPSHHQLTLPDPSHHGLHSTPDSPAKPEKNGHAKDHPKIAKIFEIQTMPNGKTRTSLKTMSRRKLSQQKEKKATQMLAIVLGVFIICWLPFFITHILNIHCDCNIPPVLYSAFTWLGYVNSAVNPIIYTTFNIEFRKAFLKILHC
Sigma intracellular receptor 2 (Homo sapiens), sequence (Q5BJF2 whole entry): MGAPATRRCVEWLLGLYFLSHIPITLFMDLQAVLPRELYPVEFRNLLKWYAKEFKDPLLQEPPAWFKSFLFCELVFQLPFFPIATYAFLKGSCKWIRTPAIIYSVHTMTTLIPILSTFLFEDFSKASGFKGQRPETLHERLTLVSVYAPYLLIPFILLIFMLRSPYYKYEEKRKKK

CCOC(=O)Cc1ccc(OCC(=O)N2CCN(c3ccccc3)CC2)c(OCC)c1
LD50 [1]: 208 mg/kg | HD50 (median hypnotic dose) [2]: 30.6 mg/kg | inhibition [3]: 22.1% | selectivity ratio [4]: 6.8 | logP [5]: 3.1

CCCOC(=O)Cc1ccc(OCC(=O)N2CCN(c3ccccc3)CC2)c(OCC)c1
selectivity ratio [6]: 10.3 | inhibition [7]: 9.1% | LD50 [1]: 200 mg/kg | Time [8]: 33.4 s | Time [9]: 14.5 s | inhibition [10]: 5.8% | Time [11]: 38.6 s | inhibition [12]: 1.2% | HD50 (median hypnotic dose) [2]: 25 mg/kg | inhibition [13]: 2.9% | Time [14]: 81.7 s | inhibition [3]: 89.8% | selectivity ratio [15]: 18.1 | inhibition [16]: 7.5% | LD50 [17]: 72.9 mg/kg | Time [18]: 83.3 s | Time [19]: 9.6 s | LD50 [20]: 93.9 mg/kg | Time [21]: 6.4 s | inhibition [22]: 4.6% | inhibition [23]: 11.5% | Time [24]: 92.4 s | EC50 [25]: 7.1 mg/kg | Time [26]: 292.9 s | inhibition [27]: 11.9% | selectivity ratio [4]: 8 | inhibition [28]: 15.2% | inhibition [29]: 12.6% | inhibition [30]: 10.8% | inhibition [31]: 4.3% | inhibition [32]: 1.9% | logP [5]: 3.6 | EC50 [33]: 5.2 mg/kg

CCOc1cc(CC(=O)OCC(F)(F)F)ccc1OCC(=O)N1CCN(c2ccccc2)CC1
LD50 [1]: 193 mg/kg | Time [11]: 44.9 s | HD50 (median hypnotic dose) [2]: 24.8 mg/kg | inhibition [3]: 70.6% | Time [18]: 76.5 s | Time [21]: 7.1 s | selectivity ratio [4]: 7.8 | logP [5]: 3.8

CCOc1cc(CC(=O)OCC(F)(F)F)ccc1OCC(=O)N1CCN(c2cccc(C)c2C)CC1
LD50 [1]: 227 mg/kg | HD50 (median hypnotic dose) [2]: 35.6 mg/kg | inhibition [3]: 32.1% | selectivity ratio [4]: 6.4 | logP [5]: 4.7

CCCOC(=O)Cc1ccc(OCC(=O)N2CCN(c3cccc(C)c3C)CC2)c(OCC)c1
LD50 [1]: 269 mg/kg | HD50 (median hypnotic dose) [2]: 42.5 mg/kg | inhibition [3]: 45.5% | selectivity ratio [4]: 6.3 | logP [5]: 4.6

COc1cc(CC(=O)OCC(F)(F)F)ccc1OCC(=O)N1CCN(c2cccc(Cl)c2Cl)CC1
LD50 [1]: 225 mg/kg | HD50 (median hypnotic dose) [2]: 34.5 mg/kg | inhibition [3]: 39.4% | selectivity ratio [4]: 6.5 | logP [5]: 4.6

CCOC(=O)Cc1ccc(OCC(=O)N2CCN(c3cccc(C(F)(F)F)c3)CC2)c(OCC)c1
LD50 [1]: 289 mg/kg | HD50 (median hypnotic dose) [2]: 42.5 mg/kg | inhibition [3]: 44.4% | selectivity ratio [4]: 6.8 | logP [5]: 4.1

CCOc1cc(CC(=O)OCC(F)(F)F)ccc1OCC(=O)N1CCN(c2cccc(C(F)(F)F)c2)CC1
LD50 [1]: 198 mg/kg | HD50 (median hypnotic dose) [2]: 31.2 mg/kg | inhibition [3]: 38.8% | selectivity ratio [4]: 6.3 | logP [5]: 4.7

CCOc1cc(CC(=O)OC(C)C)ccc1OCC(=O)N1CCN(c2ccccc2)CC1
LD50 [1]: 265 mg/kg | HD50 (median hypnotic dose) [2]: 36.8 mg/kg | inhibition [3]: 54.2% | selectivity ratio [4]: 7.2 | logP [5]: 3.5

COc1cc(CC(=O)OCC(F)(F)F)ccc1OCC(=O)N1CCN(c2ccccc2)CC1
LD50 [1]: 200 mg/kg | HD50 (median hypnotic dose) [2]: 30.8 mg/kg | inhibition [3]: 29.9% | selectivity ratio [4]: 6.5 | logP [5]: 3.4
